Reference: patent US20250122192A1, “5-PYRIMIDINECARBOXAMIDE DERIVATIVES AND METHODS OF USING THE SAME” (Rgenta Therapeutics, Inc., priority 2021, published 2025)
Structures can show the parent of a compound that is named as a salt. Where two headings read alike, the source gives them in different places.

Test system: PMS1
Test: Mini-gene reporter assay-PMS1
Assay type: cell-based
Details: for activation at 5 µM: PMS1 mini-gene firefly luciferase reporter in HEK293 cells, read-out: PMS1% Effect at 5 μM
Text: Biological Activity of the Compounds of the Present Disclosure Mini-gene reporter assay-PMS1
Mini-gene reporter constructs for each target site can be constructed by first PCR amplifying the region-of-interest including the sequence of the alternatively skipped, sequences of the immediate upstream and downstream introns, and sequences of the immediate upstream and downstream exons. Then the 3′end of the amplified sequence can be ligated to a firefly luciferase reporter gene and cloned into the pcDNA3.1 vector backbone. The final reporter construct can be transiently transfected into HEK293 cells using Lipofectamine 3000 transfection reagents. Compounds that can induce the inclusion of the skipped exon in the reporter construct would increase the reporter firefly luciferase activity.
Test compounds may be diluted in duplicates and dispensed into an assay plate. Transient mini-gene reporter cell line stock is resuspended and dispensed into the assay plate. Assay plates are then centrifuged and incubated. A luciferase reagent (e.g. ONE-Glo firefly luciferase reagent from Promega®) may be added to the assay plate and the luminescence (RLU) signals recorded. PMS1 EC50 values may be determined by curve fitting in Levenberg-Marquardt algorithm.

[1] = Homo sapiens, HEK293, PMS1 mini-gene firefly luciferase reporter transiently transfected into HEK293 cells, read-out: PMS1 IC50

| Structure (SMILES) | IC50 [1] | other results |
| --- | --- | --- |
| CCOc1nc(N2CCNCC2)ncc1C(=O)Nc1cc(F)c2nc(C)cn2c1 [Compound 2, 4-ethoxy-N-{8-fluoro-2-methylimidazo[1,2-a]pyridin-6-yl}-2-(piperazin-1-yl)pyrimidine-5-carboxamide] | – | IC50 (Homo sapiens, HEK293, read-out: PMS1 IC50 (nM)): < 500 nM |
| CCOc1nc(N2C[C@@H](C)N[C@@H](C)C2)ncc1C(=O)Nc1cc(F)c2nc(C)cn2c1 [Compound 4, 2-[(3R,5S)-3,5-dimethylpiperazin-1-yl]-4-ethoxy-N-{8-fluoro-2-methylimidazo[1,2-a]pyridin-6-yl}pyrimidine-5-carboxamide hydrochloride] | – | IC50 (PMS1 mini-gene firefly luciferase reporter transiently transfected into HEK293 cells, hydrochloride, read-out: PMS1 IC50): 500 to 1000 nM |
| CCOc1nc(N2CC3CNCC3C2)ncc1C(=O)Nc1cc(F)c2nc(C)oc2c1 (stereo not drawn) [Compound 14, 4-ethoxy-N-(4-fluoro-2-methyl-1,3-benzoxazol-6-yl)-2-{octahydropyrrolo[3,4-c]pyrrol-2-yl}pyrimidine-5-carboxamide] | < 500 nM | – |
| CCOc1nc(N2CC3(CNC3)C2)ncc1C(=O)Nc1cn2cc(C)nc2c(C)n1 [Compound 18, 2-{2,6-diazaspiro[3.3]heptan-2-yl}-N-{2,8-dimethylimidazo[1,2-a]pyrazin-6-yl}-4-ethoxypyrimidine-5-carboxamide] | < 500 nM | – |
| CCOc1nc(N2CCN[C@@H](C)C2)ncc1C(=O)Nc1cn2cc(C)nc2c(C)n1 [Compound 19, N-{2,8-dimethylimidazo[1,2-a]pyrazin-6-yl}-4-ethoxy-2-[(3S)-3-methylpiperazin-1-yl]pyrimidine-5-carboxamide] | – | activation at 5 µM (Homo sapiens): 50 to 75% |
| CCOc1nc(N2CC3CNCC3C2)ncc1C(=O)Nc1cn2cc(C)nc2c(C)n1 (stereo not drawn) [Compound 20, N-{2,8-dimethylimidazo[1,2-a]pyrazin-6-yl}-4-ethoxy-2-{octahydropyrrolo[3,4-c]pyrrol-2-yl}pyrimidine-5-carboxamide] | < 500 nM | – |
| COc1nc(N2CC3CNCC3C2)ncc1C(=O)Nc1cn2cc(C)nc2c(C)n1 (stereo not drawn) [Compound 22, N-{2,8-dimethylimidazo[1,2-a]pyrazin-6-yl}-4-methoxy-2-{octahydropyrrolo[3,4-c]pyrrol-2-yl}pyrimidine-5-carboxamide] | < 500 nM | – |
| CCOc1nc(N2CCNC3CCCCC32)ncc1C(=O)Nc1cn2cc(C)nc2c(C)n1 (stereo not drawn) [Compound 23] | > 3000 nM | – |
| CCOc1nc(N2CC3(CCN3)C2)ncc1C(=O)Nc1cn2cc(C)nc2c(C)n1 [Compound 24] | – | activation at 5 µM (Homo sapiens): 50 to 75% |
| CCOc1nc(N2CC3CNCC3C2)ncc1C(=O)Nc1cn2cc(C)nc2cn1 (stereo not drawn) [Compound 28, 4-ethoxy-N-{2-methylimidazo[1,2-a]pyrazin-6-yl}-2-{octahydropyrrolo[3,4-c]pyrrol-2-yl}pyrimidine-5-carboxamide] | 1000 to 3000 nM | – |
| CCOc1nc(N2CC(C)NCC2C)ncc1C(=O)Nc1cn2cc(C)nc2c(C)n1 (stereo not drawn) [Compound 32] | 1000 to 3000 nM | – |
| CCOc1nc(N2CC3(CC(NC)CO3)C2)ncc1C(=O)Nc1cn2cc(C)nc2c(C)n1 (stereo not drawn) [Compound 33] | > 3000 nM | – |
| CCOc1nc(N2CCCC(C3CCCCN3)C2)ncc1C(=O)Nc1cn2cc(C)nc2c(C)n1 (stereo not drawn) [Compound 34] | > 3000 nM | – |
| CCOc1nc(N2CCNC(C)C2C)ncc1C(=O)Nc1cn2cc(C)nc2c(C)n1 (stereo not drawn) [Compound 35] | > 3000 nM | – |
| CCN(c1ncc(C(=O)Nc2cn3cc(C)nc3c(C)n2)c(COC)n1)C1CCNCC1 [Compound 36] | < 500 nM | – |
| CCOc1nc(N(C)C2CC3CCC(C2)N3)ncc1C(=O)Nc1cn2cc(C)nc2c(C)n1 (stereo not drawn) [Compound 37] | < 500 nM | – |
| CCOc1nc(N2CCC(C3CCCN3)C2)ncc1C(=O)Nc1cn2cc(C)nc2c(C)n1 (stereo not drawn) [Compound 38] | 1000 to 3000 nM | – |
| CCOc1nc(N2CCC(NC)CC2)ncc1C(=O)Nc1cn2cc(C)nc2c(C)n1 [Compound 39] | < 500 nM | – |
| CCOc1nc(N2CCNCC2C)ncc1C(=O)Nc1cn2cc(C)nc2c(C)n1 (stereo not drawn) [Compound 42] | 500 to 1000 nM | – |
| CCOc1nc(N2CC(NC)C2)ncc1C(=O)Nc1cn2cc(C)nc2c(C)n1 [Compound 43] | > 3000 nM | – |
| CCOc1nc(N2CC3C4CCC(NC4)C3C2)ncc1C(=O)Nc1cn2cc(C)nc2c(C)n1 (stereo not drawn) [Compound 44] | 1000 to 3000 nM | – |
| CCNC1COC2(C1)CN(c1ncc(C(=O)Nc3cn4cc(C)nc4c(C)n3)c(OCC)n1)C2 (stereo not drawn) [Compound 45] | > 3000 nM | – |
| CCOc1nc(N(C)C2CCCNCC2)ncc1C(=O)Nc1cn2cc(C)nc2c(C)n1 (stereo not drawn) [Compound 46] | < 500 nM | – |
| CCOc1nc(N2CCNC3CC32)ncc1C(=O)Nc1cn2cc(C)nc2c(C)n1 (stereo not drawn) [Compound 47] | – | activation at 5 µM (Homo sapiens): < 50% |
| CCOc1nc(N2CC3CCNCC32)ncc1C(=O)Nc1cn2cc(C)nc2c(C)n1 (stereo not drawn) [Compound 48] | > 3000 nM | – |
| CCOc1nc(N2CCCC3CNCCC32)ncc1C(=O)Nc1cn2cc(C)nc2c(C)n1 (stereo not drawn) [Compound 49] | < 500 nM | – |

The next lines start with results.

| IC50 [1] | Structure (SMILES) | other results |
| --- | --- | --- |
| 1000 to 3000 nM | COc1nc(N2CCNCC2)ncc1C(=O)Nc1cc(F)c2nc(C)cn2c1 [Compound 1, N-(8-fluoro-2-methylimidazo[1,2-a]pyridin-6-yl)-4-methoxy-2-(piperazin-1-yl)pyrimidine-5-carboxamide, HCl] | – |
| 500 to 1000 nM | CCOc1nc(N2CCN[C@H](C)C2)ncc1C(=O)Nc1cc(F)c2nc(C)cn2c1 [Compound 3, 4-ethoxy-N-{8-fluoro-2-methylimidazo[1,2-a]pyridin-6-yl}-2-[(3R)-3-methylpiperazin-1-yl]pyrimidine-5-carboxamide] | – |
| 1000 to 3000 nM | CCOc1nc(N2CCN3CCCC3C2)ncc1C(=O)Nc1cc(F)c2nc(C)cn2c1 (stereo not drawn) [Compound 5, 4-ethoxy-N-{8-fluoro-2-methylimidazo[1,2-a]pyridin-6-yl}-2-{octahydropyrrolo[1,2-a]pyrazin-2-yl}pyrimidine-5-carboxamide] | – |
| 1000 to 3000 nM | CCOc1nc(N2CCN(C)CC2)ncc1C(=O)Nc1cc(F)c2nc(C)cn2c1 [Compound 6, 4-ethoxy-N-{8-fluoro-2-methylimidazo[1,2-a]pyridin-6-yl}-2-(4-methylpiperazin-1-yl)pyrimidine-5-carboxamide] | – |
| 500 to 1000 nM | CCOc1nc(N2CCN[C@@H](C)C2)ncc1C(=O)Nc1cc(F)c2nc(C)cn2c1 [Compound 7, 4-ethoxy-N-{8-fluoro-2-methylimidazo[1,2-a]pyridin-6-yl}-2-[(3S)-3-methylpiperazin-1-yl]pyrimidine-5-carboxamide] | – |
| < 500 nM | CCOc1nc(N2CC3CNCC3C2)ncc1C(=O)Nc1cc(F)c2nc(C)cn2c1 (stereo not drawn) [Compound 8, 4-ethoxy-N-{8-fluoro-2-methylimidazo[1,2-a]pyridin-6-yl}-2-{octahydropyrrolo[3,4-c]pyrrol-2-yl}pyrimidine-5-carboxamide] | – |
| 1000 to 3000 nM | CCOc1nc(N2CCNCC2)ncc1C(=O)Nc1cn2cc(C)nc2cn1 [Compound 9, 4-ethoxy-N-{2-methylimidazo[1,2-a]pyrazin-6-yl}-2-(piperazin-1-yl)pyrimidine-5-carboxamide] | – |
| > 3000 nM | CCOc1nc(N2CCNC(C)(C)C2)ncc1C(=O)Nc1cn2cc(C)nc2cn1 [Compound 10, 2-(3,3-dimethylpiperazin-1-yl)-4-ethoxy-N-{2-methylimidazo[1,2-a]pyrazin-6-yl}pyrimidine-5-carboxamide] | – |
| < 500 nM | CCOc1nc(N2CCNC(CC)C2)ncc1C(=O)Nc1cc(F)c2nc(C)cn2c1 (stereo not drawn) [Compound 11, 4-ethoxy-2-(3-ethylpiperazin-1-yl)-N-{8-fluoro-2-methylimidazo[1,2-a]pyridin-6-yl}pyrimidine-5-carboxamide] | – |
| 1000 to 3000 nM | CCOc1nc(N2CCNCC2)ncc1C(=O)Nc1cc(F)c2nc(C)oc2c1 [Compound 12, 4-ethoxy-N-(4-fluoro-2-methyl-1,3-benzoxazol-6-yl)-2-(piperazin-1-yl)pyrimidine-5-carboxamide] | – |
| 500 to 1000 nM | CCOc1nc(N2CCN[C@H](C)C2)ncc1C(=O)Nc1cc(F)c2nc(C)oc2c1 [Compound 13] | – |
| < 500 nM | CCOc1nc(N2CCCNCC2)ncc1C(=O)Nc1cc(F)c2nc(C)cn2c1 [Compound 15, 2-(1,4-diazepan-1-yl)-4-ethoxy-N-{8-fluoro-2-methylimidazo[1,2-a]pyridin-6-yl}pyrimidine-5-carboxamide] | – |
| > 3000 nM | CCOc1nc(N2CCNCC2)ncc1C(=O)Nc1cn2cc(C)nc2c(C)n1 [Compound 16, N-{2,8-dimethylimidazo[1,2-a]pyrazin-6-yl}-4-ethoxy-2-(piperazin-1-yl)pyrimidine-5-carboxamide] | – |
| < 500 nM | CCOc1nc(N2CC3(CCNCC3)C2)ncc1C(=O)Nc1cn2cc(C)nc2c(C)n1 [Compound 17] | – |
| 1000 to 3000 nM | Cc1cn2cc(NC(=O)c3cnc(N4CCNCC4)nc3)cc(F)c2n1 [Compound 21, N-{8-fluoro-2-methylimidazo[1,2-a]pyridin-6-yl}-2-(piperazin-1-yl)pyrimidine-5-carboxamide] | – |
| 1000 to 3000 nM | CCOc1nc(N2CCNCC2)ncc1C(=O)Nc1ccc2nn(C)cc2c1 [Compound 25, 4-ethoxy-N-(2-methyl-2H-indazol-5-yl)-2-(piperazin-1-yl)pyrimidine-5-carboxamide] | – |
| 500 to 1000 nM | CCOc1nc(N2CCNCC2)ncc1C(=O)Nc1cc(F)c2nn(C)cc2c1 [Compound 26, 4-ethoxy-N-(7-fluoro-2-methyl-2H-indazol-5-yl)-2-(piperazin-1-yl)pyrimidine-5-carboxamide] | – |
| 500 to 1000 nM | CCOc1nc(N2CCNCC2)ncc1C(=O)Nc1cc(OC)c2nc(C)cn2c1 [Compound 27, 4-ethoxy-N-{8-methoxy-2-methylimidazo[1,2-a]pyridin-6-yl}-2-(piperazin-1-yl)pyrimidine-5-carboxamide] | – |
| 1000 to 3000 nM | CCOc1nc(N2CCNCCC2C)ncc1C(=O)Nc1cn2cc(C)nc2c(C)n1 (stereo not drawn) [Compound 40] | – |
